Source: US8901175B2 (priority 2008, dated 2014)
Structures can show the parent of a compound that is named as a salt. Residues, ends and D or L forms follow the SMILES beside them. *: point of attachment. Cbz = O=C(OCc1ccccc1)*; CH2F = FC*

Legend:
[1] = system: Human acute myeloid leukaemia HL-60 cell line; test: Induction of apoptosis in HL-60 cell line (5000 cells/100 μl), long incubation, flow cytometry; assay type: cell-based
[2] = system: HL-60 cells; test: Inhibition of methadone induced apoptosis by zVAD.fmk in HL-60 cells; assay type: cell-based, human; conditions: 50 μM zVAD.fmk, preincubated 1 h before methadone
[3] = system: CEM cells; test: Inhibition of methadone induced apoptosis by zVAD.fmk in CEM cells; assay type: cell-based, human; conditions: 50 μM zVAD.fmk, preincubated 1 h before methadone
[4] = system: CEM leukaemia cells; test: Western blot analysis in CEM cells; assay type: cell-based, human; conditions: 20, 15 μM methadone, 24 h and 48 h
[5] = system: human glioblastoma cell line A172; test: Induction of apoptosis in A172 glioblastoma cells, flow cytometry; assay type: cell-based
[6] = system: HL-60 leukaemia cells; test: Western blot analysis in HL-60 cells; assay type: cell-based, human; conditions: 20, 15 μM methadone, 24 h and 48 h
[7] = system: human lymphoblastic leukaemia T-cell line CEM; test: Induction of apoptosis in CEM cells, flow cytometry (hypodiploid DNA); assay type: cell-based; conditions: 30, 20, 15, 10 μM methadone, 24 h and 48 h
[8] = system: leukaemia cells; test: Western blot analysis in leukaemia cells (caspase-8, Bax, CD95); assay type: cell-based, human
Description: Western blot analyses were done as described (Friesen et al. 2004, Friesen et al. 2003). Immunodetection of PARP, caspase-3, caspase-9, caspase-8, XIAP, CD95, CD95-L, Bax, Bcl-xL and β-actin was done using rabbit anti-PARP polyclonal antibody (1:5000, Roche), mouse-anti-caspase-3 monoclonal antibody (1:1000, Cell-Signalling), mouse-anti-caspase-8 monoclonal antibody (1:1000, Cell-Signalling), rabbit- anti-active-caspase-9 polyclonal antibody (1:1000, Cell-Signalling), mouse-anti-XIAP monoclonal antibody (1:1000, Transduction-Laboratories, Lexington, Ky.), mouse-anti-Fas (anti-CD95) monoclonal antibody (1:1000, Transduction-Laboratories), mouse-anti-Fas ligand (anti-CD95-ligand) monoclonal antibody (1:250, BD, Pharmingen), rabbit-anti-Bax polyclonal antibody (1:250, Oncogene, Cambridge), rabbit-anti-Bcl-XS/L. polyclonal antibody (1:1000, Santa-Cruz-Biotechnology, Santa-Cruz, Calif.), rabbit-anti-p21 polyclonal antibody (1:1000, Santa-Cruz), and mouse anti-β-actin monoclonal antibody (Sigma). Peroxidase-conjugated goat-anti-mouse IgG or peroxidase-conjugated goat-anti-rabbit IgG (1:5000, Santa-Cruz) as secondary antibody were used for the enhanced chemoluminescence system (ECL, Amersham-Pharmacia, Freiburg, Germany). Equal protein loading was controlled by β-actin detection.

[9] = system: CD95-resistant leukaemia cells CEM^CD95R; test: Induction of apoptosis in CD95-resistant CEM cells; assay type: cell-based, human; conditions: 30, 20, 15 μM methadone, 24 h and 48 h
[10] = system: human myeloid leukaemia cell line HL-60; test: Induction of apoptosis in HL-60 cells, flow cytometry (hypodiploid DNA); assay type: cell-based; conditions: 30, 20, 15, 10 μM methadone, 24 h and 48 h
[11] = system: CD95-resistant leukaemia cells CEM^CD95R; test: Western blot analysis in CEM^CD95R cells; assay type: cell-based, human; conditions: 20, 15 μM methadone, 24 h and 48 h
[12] = system: B-ALL (B-Cell lymphatic leukaemia) cells; test: Induction of apoptosis in B-ALL cells isolated from patients ex vivo; assay type: cell-based, human; conditions: B-ALL patient cells; 10 μM methadone; 72 h
[13] = system: doxorubicin-resistant leukaemia cells CEM^DoxoR; test: Western blot analysis in CEM^DoxoR cells; assay type: cell-based, human; conditions: 20, 15 μM methadone, 24 h and 48 h
[14] = system: doxorubicin-resistant CEM leukaemia cells (CEM^DoxoR); test: Induction of apoptosis in doxorubicin-resistant CEM cells; assay type: cell-based, human; conditions: 30, 20, 15 μM methadone, 24 h and 48 h
[15] = 1 μg/mL methadone in addition of 0.1 μg/mL doxorubicin, 72 h
[16] = leukaemia cells after methadone treatment

## CN1CC[C@]23c4c5ccc(O)c4O[C@H]2[C@@H](O)C=C[C@H]3[C@H]1C5 [morphine, Morphine]
[1]; HL-60, first study, 40 μg/mL morphine, 144 h
  apoptosis, cells: 40%
[1]; HL-60, second study, 1 μg/mL morphine, 168 h
  apoptosis, cells: more than 50%
[1]; HL-60, third study, 1 μg/mL morphine in combination with 0.001 μg/mL doxorubicin, 168 h
  apoptosis, cells: 50%

## CC(C)[C@H](NC(=O)OCc1ccccc1)C(=O)N[C@@H](C)C(=O)N[C@@H](CC(=O)O)C(=O)CF [zVAD.fmk, benzoyl carbonyl-Val-Ala-Asp-fluoromethyl ketone] (Cbz-Val-Ala-Asp-CH2F)
[2]
  inhibition of methadone-induced apoptosis: almost completely inhibited
[3]
  inhibition of methadone-induced apoptosis: almost completely inhibited

## CCC(=O)C(CC(C)N(C)C)(c1ccccc1)c1ccccc1 (racemic) [methadone, D, L-methadone hydrochloride]
[4]
  down regulation of Bcl-xL: strong down regulation
  down regulation of XIAP: strong down regulation
[5]; [15]
  apoptotic effect of the combination with doxorubicin: strong apoptotic effect
  synergy with doxorubicin: synergistic effects
[5]; 20 μg/mL methadone, 120 h
  dead cells (specific cell death): more than 20%
[5]; 20 μg/mL methadone, 168 h
  dead cells (specific cell death): more than 80%
[5]; 30 μg/mL methadone, 120 h
  dead cells (specific cell death): more than 85%
[5]; 30 μg/mL methadone, 168 h
  dead cells (specific cell death): ~100%
[6]
  down regulation of Bcl-xL: strong down regulation
  down regulation of XIAP: strong down regulation
[7]
  induction of apoptosis: strong induction of apoptosis
[8]; [16]
  Activation of caspase-8: not found
  Up regulation of Bax: not found
[8]; leukaemia cells after methadone treatment (data not shown)
  up regulation of death-inducing ligands and death-inducing receptors such as CD95: not found
[9]
  induction of apoptosis: strong induction of apoptosis
[10]
  induction of apoptosis: strong induction of apoptosis
[11]
  down regulation of Bcl-xL: strong down regulation
  down regulation of XIAP: strong down regulation
[12]
  apoptosis, cells: over 80%
[13]
  down regulation of Bcl-xL: strong down regulation
  down regulation of XIAP: strong down regulation
[14]
  induction of apoptosis: strong induction of apoptosis
